# “And” between values parts separate entries of the source, which are not always exact repeats. Identical values can stand only once.
# What was measured:
# [1] = test system: isolated rabbit ear preparation; assay: Rabbit ear perfusion test (adrenaline-induced tone, perfusion pressure); settings: Oryctolagus cuniculus, Table 6, read-out: Corrected mean % change in perfusion pressurre
# Method: Female New Zealand White rabbits (approximately 4kg) were anaesthetised with Sagatal ® (0.5ml/kg).
# The central ear artery was cannulated using a 20 G catheter and the ear cut off at its base. Heparinised (5ml, 200 IU;ml) Krebs bicarbonate solution was perfused through the ear to expel the blood. The ear was placed in a warming jacket at 37°C and attached via the arterial catheter to the perfusion pump. Perfusion of the ear with aerated (95% 025% C02)Krebs bicarbonate solution at 37° C was commenced at a rate of 6.5ml/min using a Watson Marlow peristaltic pump. The perfusion pressure was monitored continuously using a pressure transducer (Type 4-327-1221, Consoliated Electrodynamics) coupled to a Devices Recorder.
# Following an equilibration period of 15 minutes, increased tone was induced in the preparation by addition of adrenaline (1µg/ml) to the perfusion fluid.
# After a stable tone was observed, various concentrations of test compounds were injected into the perfusion fluid and examined for their effect on the perfusion pressure. The effect of vehicle (0.2ml, 50% Krebs 50% ethanol) was also tested on the ear preparation.
# [2] = test system: spontaneously hypertensive rats (SHR ); assay: Antihypertensive test: mean arterial pressure in spontaneously hypertensive rats; assay type: in vivo, rat; parameters: mean arterial BP (individual rats): unit not given here; settings: SHR, 1mg/kg intravenous; for mean arterial BP (individual rats): rats 1-6, 1 mg/kg; for mean arterial BP, Av. / Average % change in mean arterial BP: standard error of the mean in brackets; for Average % change in mean arterial BP: versus pre-dose control
# Method: (§1) The effect of Compound 3 on the mean arterial pressure was determined on spontaneously hypertensive rats (SHR ) by means of direct pressure transducing. Groups of 6 male rats of mass 210-300g were used. The average of ten pressure determinations was used. Normotensive (BD-9) rats were used as animal controls, while normal saline solution (containing some traces of polyethylene glycol and ethanol to aid in the solution of the test compounds) was used as solvent and as solvent control.
# (§2) After verifying the mass of the animal, it was placed under general anaesthesia by administering 60mgikg pentobarbitone (Sagatal@) intraperitonially. The tracheal tube and carotid artery were both exposed by dissection. An intranule was introduced into the trachea as aid ventilation. The carolid artery was canalated and coupled to a pressure sensor. The sysolic, diastolic and mean arterial pressure were monitored via a Spacelab 514 patient monitor and registered on a Vitatek 551 plotter. During the experiment the exposed tissue of the rat was covered with guaze and kept damp with normal saline.
# (§3) The drugs and solvent controls were administered intravenously into the dorsal penile vein after stabilization of the blood pressure (BP) had occurred. After drug administration, the BP was recorded every 5 minutes for a period of 30 min.
# BD-9 rats (normatensive) = assay: Antihypertensive test: mean arterial pressure in normotensive BD-9 rats; assay type: in vivo, rat; parameters: mean arterial BP (individual rats): unit not given here; settings: 1mg/kg intravenous; for mean arterial BP (individual rats): rats 1-6, 1 mg/kg; for mean arterial BP, Av. / Average % change in mean arterial BP: standard error of the mean in brackets; for Average % change in mean arterial BP: versus pre-dose control
# Method: as §1, §2, §3
compound,measurement,setting,value
COC(=O)C1=C(C)NC(C)=C(C(=O)OC)C1c1ccccc1[N+](=O)[O-] [Nifedipine],inhibition at 0.01 mg,[1]; dose 10 μg,4%
same,inhibition at 0.0316 mg,[1]; dose 31.6 μg,0.5%
same,inhibition at 0.1 mg,[1]; dose 100 μg,9.5%
same,inhibition at 0.316 mg,[1]; dose 316 μg,-26%
same,inhibition at 1 mg,[1]; dose 1000 μg,39.5%
same,mean arterial BP (individual rats),[2]; 5 min,105 and 67 and 88 and 85 and 80 and 74
same,"mean arterial BP, Av.",[2]; 5 min,83(5)
same,Average % change in mean arterial BP,[2]; 5 min,44(5.4) %
same,mean arterial BP (individual rats),[2]; 10 min,96 and 64 and 104 and 88 and 81 and 74
same,"mean arterial BP, Av.",[2]; 10 min,85(6)
same,Average % change in mean arterial BP,[2]; 10 min,43(6.0) %
same,mean arterial BP (individual rats),[2]; 15 min,95 and 68 and 107 and 93 and 84 and 77
same,"mean arterial BP, Av.",[2]; 15 min,87(6)
same,Average % change in mean arterial BP,[2]; 15 min,41(5.8) %
same,mean arterial BP (individual rats),[2]; 20 min,93 and 69 and 92 and 100 and 83 and 80
same,"mean arterial BP, Av.",[2]; 20 min,86(5)
same,Average % change in mean arterial BP,[2]; 20 min,42(4.2) %
same,mean arterial BP (individual rats),[2]; 25 min,95 and 71 and 93 and 106 and 79 and 84
same,"mean arterial BP, Av.",[2]; 25 min,88(5)
same,Average % change in mean arterial BP,[2]; 25 min,41(4.4) %
same,mean arterial BP (individual rats),[2]; 30 min,95 and 73 and 93 and 110 and 81 and 85
same,"mean arterial BP, Av.",[2]; 30 min,90(5)
same,Average % change in mean arterial BP,[2]; 30 min,40(4.3) %
same,mean arterial BP (individual rats),BD-9 rats (normatensive); 5 min,67 and 59 (2×) and 80 and 74 and 60
same,"mean arterial BP, Av.",BD-9 rats (normatensive); 5 min,67(4)
same,Average % change in mean arterial BP,BD-9 rats (normatensive); 5 min,38(5.5) %
same,mean arterial BP (individual rats),BD-9 rats (normatensive); 10 min,65 and 67 (2×) and 74 and 69 and 66
same,"mean arterial BP, Av.",BD-9 rats (normatensive); 10 min,68(1)
same,Average % change in mean arterial BP,BD-9 rats (normatensive); 10 min,37(4.4) %
same,mean arterial BP (individual rats),BD-9 rats (normatensive); 15 min,68 and 66 (2×) and 65 and 74 and 63
same,"mean arterial BP, Av.",BD-9 rats (normatensive); 15 min,67(2)
same,Average % change in mean arterial BP,BD-9 rats (normatensive); 15 min,38(3.8) %
same,mean arterial BP (individual rats),BD-9 rats (normatensive); 20 min,67 and 60 and 62 and 77 and 65 and 64
same,"mean arterial BP, Av.",BD-9 rats (normatensive); 20 min,66(2)
same,Average % change in mean arterial BP,BD-9 rats (normatensive); 20 min,39(3.1) %
same,mean arterial BP (individual rats),BD-9 rats (normatensive); 25 min,63 (2×) and 55 and 62 and 80 and 67
same,"mean arterial BP, Av.",BD-9 rats (normatensive); 25 min,65(3)
same,Average % change in mean arterial BP,BD-9 rats (normatensive); 25 min,40(2.8) %
same,mean arterial BP (individual rats),BD-9 rats (normatensive); 30 min,61 and 57 and 63 and 79 and 60 and 62
same,"mean arterial BP, Av.",BD-9 rats (normatensive); 30 min,64(3)
same,Average % change in mean arterial BP,BD-9 rats (normatensive); 30 min,41(3.4) %
